{"source": "patent US20250000834A1", "about": "“COMPOSITIONS AND METHODS FOR TARGETING GPCR FOR THE PREVENTION AND TREATMENT OF PAIN” (Duke University, priority 2021, published 2025)", "key": {"[1]": {"test_system": "neuron-glia mixed cultures from DRG", "assay": "IL-1β release in SGC-neuron co-cultures from DRG (ELISA)", "assay_type": "cell-based, mouse", "conditions": "100 nM, cells from WT mice, 1 μM paclitaxel 24 h", "protocol": "SGC and neuron co-culture: DRG were collected from wild-type (WT) or knock-out (KO) mice (8 weeks male) and incubated in 1 mg/ml Collagenase/Dispase (Roche Diagnostics, Madison, WI, USA) at 37° C. for 60 min, with agitation at 100 revolutions per minute (RPM) and then followed by incubation in 0.05% trypsin/EDTA for 10 min. The digestion enzymes were prepared in Dulbecco's modified Eagle medium/F12 with GlutaMAX (ThermoFisher, Waltham, MA). After incubation of 0.1% trypsin inhibitor and centrifugation (300 G), the cell pellet was gently triturated in a neurobasal medium containing […]. Dissociated DRG cells were seeded on non-coated culture dishes for 4 hrs. SGC and neurons were included for co-culture by hand-shaking of the culture flasks gently for 5 to 10 min and then resuspended by replacing with a new neurobasal medium. The attached glial-like cells were cultured in the DMEM/F12 medium containing 10% fetal bovine serum and 1% streptomycin/penicillin to promote cell growth and inhibition of differentiation. After 2 to 6 days, the glial-like cells were differentiated by application of the serum-free neural basal medium. […]"}, "[2]": {"biological_target": "T1, hGPR37L1 (Homo sapiens, UniProt O60883)", "T1 sequence (O60883 26-481)": "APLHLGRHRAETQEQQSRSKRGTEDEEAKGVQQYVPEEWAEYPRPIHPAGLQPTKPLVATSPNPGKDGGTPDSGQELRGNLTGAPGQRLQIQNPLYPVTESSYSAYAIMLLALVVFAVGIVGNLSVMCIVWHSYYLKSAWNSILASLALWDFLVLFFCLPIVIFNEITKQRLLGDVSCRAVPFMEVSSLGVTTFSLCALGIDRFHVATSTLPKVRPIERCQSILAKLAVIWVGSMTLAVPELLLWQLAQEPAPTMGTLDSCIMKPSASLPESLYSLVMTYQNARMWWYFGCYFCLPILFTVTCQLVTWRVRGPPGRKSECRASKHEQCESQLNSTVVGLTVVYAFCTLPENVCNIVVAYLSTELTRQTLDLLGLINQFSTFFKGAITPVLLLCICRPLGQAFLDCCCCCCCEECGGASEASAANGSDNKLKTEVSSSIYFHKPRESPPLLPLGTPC", "assay": "Lipid-coated bead pull-down assay with hGPR37L1-expressing cells", "assay_type": "binding", "design": "expressed in transfected cells; host or cells: HEK293 Flp-In cells", "conditions": "Western blot", "protocol": "Lipid pull-down assay: Isolated membrane proteins were pre-adsorbed to uncoated control agarose beads (Vector Laboratories, Burlingame, CA); the unbound fraction was collected and incubated 24 hrs at 4° C. with lipid-coated agarose beads (S. Bang et al., GPR37 regulates macrophage phagocytosis and resolution of inflammatory pain. J Clin Invest 128, 3568-3582 (2018)). After extensive washing, bound proteins were eluted from the lipid-coated beads, suspended in Laemmli buffer containing 2% SDS (w/v) and 0.3-M β-mercaptoethanol (Sigma-Aldrich, St. Louis, MO), and heated 5 min at 95° C. to dissolve proteins before separation on 4-20% polyacrylamide/SDS gels as outlined above. The lysate proteins were detected by western blot.\nWestern blot: GPR37L1 proteins were isolated from transfected cells, lipid pull-down beads, and mouse DRG. The cells were placed on ice, washed with ice-cold phosphate-buffered saline (PBS), and harvested with ice-cold RIPA buffer (Sigma-Aldrich, St. Louis, MO) with Protease Inhibitor Cocktail Tablet (pH 7.4) (Roche Diagnostics, Indianapolis, IN). The cell lysates were centrifugated for removing insoluble debris and were calculated by BCA assay for detection of protein level, and the supernatant was mixed with 4× Laemmli buffer (Bio-Rad, Hercules, CA) and boiling. Protein samples were […] on 4-15% gradient SDS-PAGE gel (Bio-Rad, Hercules, CA) and blotted on PVDF membrane (Bio-Rad, Hercules, CA). Ponceau S staining was used for the detection of total proteins. The primary antibody was incubated with PBS+1% BSA at 4° C. overnight. We used the following primary antibodies: anti-GPR37L1 antibody (Bioss (Woburn, MA), Rabbit, 1:1000, #bs-15390R); anti-GAPDH antibody (Proteintech (Rosemont, IL), mouse, 1:2000, #60004); and anti-flag antibody (Cell Signaling Technologies (Danvers, MA), Rabbit, 1:1000, #14793). Blots were further incubated with an […] secondary anti-rabbit antibody (Jackson ImmunoResearch Laboratories (West Grove, PA), donkey, 1:5000), developed in ECL solution (Pierce Biotechnology, Appleton, WI)), and visualized in ChemiDoc XRS (Bio-Rad, Hercules, CA). Protein signal intensity was quantified by Image J software (NIH).\nNext, a lipid-coated bead pull-down assay with hGPR37L1-expressing cells was used to confirm whether MaR1 would interact with GPR37L1 protein selectively. […] The right molecule size of GPR37L1 (˜50 kDa) was also validated by the anti-FLAG antibody (data not shown; see U.S. Prov. No. 63/270,198, FIG. 3E)."}}}
{"compound": "CC/C=C\\C/C=C\\C[C@H](O)\\C=C/C=C/C=C/[C@H](O)C/C=C\\CCC(=O)O", "note": "[MaR1, Maresin 1]", "values": [{"measurement": "effect on paclitaxel-induced IL-1β secretion", "setting": "[1]", "result": "blocked"}, {"measurement": "GPR37L1 binding in lipid-coated bead pull-down extracts", "setting": "[2]", "result": "Strong GPR37L1 binding"}]}
